These results are taken from ChEMBL document CHEMBL1155606, “Stolonic acids A and B, new cytotoxic cyclic peroxides from an Indian Ocean ascidian Stolonica species” (J Nat Prod, 2000).

Structures are written as SMILES. ≈ marks a conversion by molar mass, not a printed value.

Assay [1] in a line: Cytotoxicity against human LOX cells after 48 hrs. The format is functional, cell-based.
The test system of assay [2] is OVCAR-3. The experiment in a line: Cytotoxicity against human OVCAR-3 cells after 48 hrs. The format is functional, cell-based. Conditions: OVCAR-3, 48 h.

One may read the IC50 as the concentration at which inhibition is half-maximal. On to `CCCC/C=C/C=C/CCCCCCCC[C@@H]1CC[C@@H]([C@@H]2CC[C@@H](CC(=O)O)OO2)O1` [STOLONIC ACID A], for which the IC50 in assay [1] came out at 0.05 µg/mL (≈ 0.115 µM); in assay [2], 0.1 µg/mL (≈ 0.229 µM).
The corresponding values for `CCCC/C=C\C=C/CCCCCCCC[C@@H]1CC[C@@H]([C@@H]2CC[C@@H](CC(=O)O)OO2)O1` [STOLONIC ACID B] are 0.05 µg/mL (≈ 0.115 µM) and 0.1 µg/mL (≈ 0.229 µM).
